These results are taken from ChEMBL document CHEMBL1155702, “New tirucallane-type triterpenes from Dysoxylum variabile” (J Nat Prod, 2001).

Values after ≈ are worked out from the molar mass of the structure shown.

The experiment deals with KB. The experiment can be described thus: Cytotoxicity against human KB cells. The format is functional, cell-based.
With `C[C@H](C[C@@H](O)[C@@H]1OC1(C)C)[C@@H]1CC[C@]2(C)C3=CC[C@H]4C(C)(C)C(=O)CC[C@]4(C)[C@H]3CC[C@@]12C` [NILOTICIN], the 50% inhibitory concentration (IC50) (in general, the concentration that inhibits the measured activity by half) was 8.4 mg/L (≈ 18.4 µM). Then `C[C@H](C[C@@H](O)[C@@H]1OC1(C)C)[C@@H]1CC[C@]2(C)[C@@]34O[C@H]3C[C@H]3C(C)(C)C(=O)CC[C@]3(C)[C@H]4CC[C@@]12C` [DYVARIABILIN C], with 8.7 mg/L (≈ 18.4 µM); and `C[C@H](C[C@@H](O)[C@@H]1OC1(C)C)[C@@H]1CC[C@]2(C)[C@]34O[C@@H]3C[C@H]3C(C)(C)C(=O)CC[C@]3(C)[C@H]4CC[C@@]12C` [DYVARIABILIN B], with 10 mg/L (≈ 21.2 µM).
